# Assay results published in the supplement of paper PMC10307832.
# Tests used:
# Test in all cases: relative viability (nuclei count vs DMSO), 5 days (fraction); higher = more cells survive
# Ibrutinib + Olaparib = compound: C=CC(=O)N1CCC[C@@H](n2nc(-c3ccc(Oc4ccccc4)cc3)c3c(N)ncnc32)C1 [Ibrutinib] + O=C(c1cc(Cc2n[nH]c(=O)c3ccccc23)ccc1F)N1CCN(C(=O)C2CC2)CC1 [Olaparib] (partner 8 µM)
# Outline: (§1)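 For relative viability, nuclei counts in treated wells were divided by those in vehicle wells. Lung cancer cell lines had been pin-tool dosed in 1536-well plates the day after seeding and cultured for 5 days, then fixed and stained in one step (final 0.05% Triton X-100, 1% formaldehyde, 1 ug/ml Hoechst) and imaged at 4×. Doses were one drug alone or a fixed anchor-drug dose plus five library-drug doses (not always all listed) in √10 steps, and values are duplicate-plate medians.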
# BMX-IN-1 + Pictilisib = compound: C=CC(=O)Nc1cc(-n2c(=O)ccc3cnc4ccc(-c5ccc(NS(C)(=O)=O)cc5)cc4c32)ccc1C [BMX-IN-1] + CS(=O)(=O)N1CCN(Cc2cc3nc(-c4cccc5[nH]ncc45)nc(N4CCOCC4)c3s2)CC1 [Pictilisib] (partner 1 µM)
# Outline: as §1
# BMX-IN-1 + Pemetrexed = compound: C=CC(=O)Nc1cc(-n2c(=O)ccc3cnc4ccc(-c5ccc(NS(C)(=O)=O)cc5)cc4c32)ccc1C [BMX-IN-1] + Nc1nc2[nH]cc(CCc3ccc(C(=O)N[C@@H](CCC(=O)O)C(=O)O)cc3)c2c(=O)[nH]1 [Pemetrexed] (partner 0.2 µM)
# Outline: as §1
# PAC-1 + Trametinib = compound: C=CCc1cccc(/C=N/NC(=O)CN2CCN(Cc3ccccc3)CC2)c1O [PAC-1] + CC(=O)Nc1cccc(-n2c(=O)n(C3CC3)c(=O)c3c(Nc4ccc(I)cc4F)n(C)c(=O)c(C)c32)c1 [Trametinib] (partner 0.02 µM)
# Outline: as §1
Cell Line,relative viability (Ibrutinib + Olaparib; first compound 0.005 µM),relative viability (Ibrutinib + Olaparib; first compound 0.01581 µM),relative viability (Ibrutinib + Olaparib; first compound 0.05 µM),relative viability (Ibrutinib + Olaparib; first compound 0.1581 µM),relative viability (Ibrutinib + Olaparib; first compound 0.5 µM),relative viability (BMX-IN-1 + Pictilisib; first compound 0.02 µM),relative viability (BMX-IN-1 + Pictilisib; first compound 0.2 µM),relative viability (BMX-IN-1 + Pictilisib; first compound 0.6325 µM),relative viability (BMX-IN-1 + Pictilisib; first compound 2 µM),relative viability (BMX-IN-1 + Pemetrexed; first compound 0.02 µM),relative viability (BMX-IN-1 + Pemetrexed; first compound 0.2 µM),relative viability (BMX-IN-1 + Pemetrexed; first compound 0.6325 µM),relative viability (BMX-IN-1 + Pemetrexed; first compound 2 µM),relative viability (PAC-1 + Trametinib; first compound 0.02 µM),relative viability (PAC-1 + Trametinib; first compound 0.06325 µM),relative viability (PAC-1 + Trametinib; first compound 0.2 µM),relative viability (PAC-1 + Trametinib; first compound 2 µM)
EKVX,0.691,0.835,0.674,0.935,0.449,0.522,0.439,0.442,0.404,0.56,0.448,0.464,0.452,0.369,0.314,0.314,0.35
EMC-BAC-2,0.505,0.52,0.56,,0.562,0.556,0.562,0.621,0.506,0.448,0.486,0.466,0.44,1.07,0.925,0.913,0.849
EPLC-272H,0.708,0.597,0.49,0.79,0.455,0.35,0.31,0.304,0.377,0.304,0.278,0.235,0.316,0.251,0.322,0.301,0.28
H3255,0.533,0.53,0.516,0.623,0.407,0.437,0.461,0.592,0.488,0.52,0.583,0.686,0.563,0.713,0.746,0.587,0.512
HARA,0.96,0.712,0.778,0.763,0.384,0.4,0.284,0.482,0.397,0.257,0.271,0.282,0.255,0.632,0.697,0.621,0.473
